Legend:
[1] = molecular target: T1, purified human TG2 (Homo sapiens, UniProt P21980); test: Conformational shift assay by native polyacrylamide gel electrophoresis (native-PAGE); format: biochemical; details: TG2 2.5 uM; 1 mM LDN-27219, 1 mM GTPNa2, or 0.2 mM Z-DON with CaCl2
T1 construct: purchased Zedira (Darmstadt, Germany); host or cells: insect cells
T1 sequence (P21980 1-687): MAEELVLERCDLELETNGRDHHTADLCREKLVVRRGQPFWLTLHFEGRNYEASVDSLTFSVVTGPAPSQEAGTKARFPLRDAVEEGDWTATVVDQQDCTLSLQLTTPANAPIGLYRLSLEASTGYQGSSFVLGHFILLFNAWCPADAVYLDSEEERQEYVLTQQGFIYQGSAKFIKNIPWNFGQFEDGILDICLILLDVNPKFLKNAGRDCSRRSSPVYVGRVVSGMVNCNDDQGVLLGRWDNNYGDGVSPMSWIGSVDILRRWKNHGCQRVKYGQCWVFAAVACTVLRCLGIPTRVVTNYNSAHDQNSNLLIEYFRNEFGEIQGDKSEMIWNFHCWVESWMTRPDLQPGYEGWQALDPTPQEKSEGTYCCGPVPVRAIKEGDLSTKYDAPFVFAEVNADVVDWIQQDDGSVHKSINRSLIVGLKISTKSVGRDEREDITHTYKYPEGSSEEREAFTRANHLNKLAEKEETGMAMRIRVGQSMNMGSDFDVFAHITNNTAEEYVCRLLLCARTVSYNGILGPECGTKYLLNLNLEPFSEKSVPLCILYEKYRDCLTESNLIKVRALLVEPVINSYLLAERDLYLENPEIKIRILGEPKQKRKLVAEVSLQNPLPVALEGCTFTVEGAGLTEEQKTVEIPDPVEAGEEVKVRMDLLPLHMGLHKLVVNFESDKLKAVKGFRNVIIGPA
Description: For the conformational shift assay using native polyacrylamide gel electrophoresis (native-PAGE) purified and functional human TG2 protein produced in insect cells was obtained from Zedira (Darmstadt, Germany).
Native gel electrophoresis experiments were performed using a method similar to those previously described (Pinkas D M, et al., PLoS Biol, 2007, 5(12), 2788-2796.) (Iversen R, et al., Proc Natl. Acad. Sci., 2014, 111(43), 17146-17151). Briefly, TG2 (2.5 uM) was incubated for 30 min at room temperature in preincubation buffer (75 mM imidazole, 0.5 mM EDTA, 5 mM DTT [pH 7.2], 10% DMSO) with or without 1 mM GTPNa2 or 1 mM LDN-27219 before adding Native Sample Buffer for Protein Gels (Bio-Rad) or in preincubation buffer with 0.2 mM Z-DON 30 min prior addition of 5 mM of CaCl2 for 20 min. Native buffer was added (dilution 1:2), and 1.5 ug of protein was loaded onto a 4-20% Criterion™ TGX Stain-Free™ gel (Bio-Rad) using Tris-glycine as the running buffer. For 75 min, 125 V was applied at 4° C. The bands were visualized using stain-free technology by exposing the gels to UV light and capturing the image using a PXi 4 Touch image analysis system (Syngene). Band intensity analysis was carried out using GeneTools 4 software (Syngene).

[2] = tested on: small mesenteric arteries; test: Direct relaxation of U46619 pre-contracted small mesenteric arteries, concentration-response curves; set-up: species or system Male Wistar rats
Description: The small mesenteric arteries were prepared in the same way is described in example 1.
The small mesenteric arteries were pre-contracted with the thromboxane analogue, U46619 (4·10^−7 mol/L) and concentration-response curves for TG2 specific inhibitors, LDN-27219 (10^−8-10^−5 mol/L) and Z-DON (10^−8-3·10^−4 mol/L) were constructed. To study the role of the endothelial pathways in LDN-27219 relaxation, concentration-response curves were constructed for it in arteries whose endothelium had been removed mechanically by rubbing the lumen repeatedly with a human scalp hair.

## NNC(=O)CSc1nc2scc(-c3ccccc3)c2c(=O)n1-c1ccccc1 [LDN-27219]
[1]
  relative abundance of closed / open conformation of TG2: increase the relative abundance of the closed conformation
[2]; U46619 4·10^−7 mol/L, LDN-27219 10^−8-10^−5 mol/L, Z-DON 10^−8-3·10^−4 mol/L, endothelium intact
  relaxation of U46619 pre-contracted arteries: induced relaxation
[2]; endothelium removed mechanically
  relaxation of U46619 pre-contracted arteries without an endothelium layer: significantly reduced relaxation

Reference: US20210308138A1, “TISSUE TRANSGLUTAMINASE MODULATORS FOR MEDICINAL USE” (Aarhus Universitet, priority 2018, published 2021)
